A short description of data set [1]: lipophilicity by thin layer chromatography. Type of data set: physicochemical.
A further data set deals with LLC-PK1 (pig kidney). As to the kind of experiment: MTT cytotoxicity assay, 96 hours exposure. The conditions noted are these: LLC-PK1, 96 hours exposure. It is filed as cell-based. How it is done:
(§1) The cytotoxicity of Peloruside A was tested in five cell lines:
(§2) 32D (murine myeloid) generally in accordance with the MTT assay of Burres et al., J. Cancer Research (1989), 49, 2935-2940.
(§3) Briefly, cell lines were maintained in Dulbecco's modified Eagle's medium: F12 medium (50:50) (Gibco) supplemented with 10% fetal calf serum (Gibco), […] Penicillin G, and […] streptomycin sulfate. After 96 hours exposure to the toxin, cell viability was determined by the MTT calorimetric assay. […] Data were analysed with the SYSTAT statistical program using a non-linear model fit, and IC50 values were calculated using a Logit-Log plot.
For orientation: Tetrazolium dyes change colour on reduction, which living cells bring about.

The test system of another data set is P388 (murine leukemia). As to the kind of experiment: MTT cytotoxicity assay, 96 hours exposure. The conditions noted are these: P388, 96 hours exposure. Type of data set: cell-based. On the procedure: as §1, §2, §3
Data set [2] has as its system different cell lines (H441, SY5Y, HL-60, 32D-ras, 32D, LLC-PK1). As to the kind of experiment: MTT cell proliferation assay in the different cell lines. Type of data set: cell-based. The conditions noted are these: 96 h; 4-day exposure. On the procedure: (§4) Tumorigenic and non-tumorigenic cell lines were cultured as previously described in Hood K. A., West L. M., Northcote P. T., Berridge M. V., Miller J. H., Apoptosis (2001), 6, 207-219. These cell lines included HL-60 and KS62, two tumorigenic human myeloid leukemic cell lines, 32D clone 3 (32D), a non-tumorigenic murine myeloid cell line, 32D-ras, the ras-transformed derivative of 32D, H441, a human lung adenocarcinoma cell line, SH-SY5Y, a human neuroblastoma cell line, and LLC-PK1, a non-tumorigenic pig kidney cell line. IC50 values for Peloruside A in the different cell lines were determined using the tetrazolium-based MTT cell proliferation assay as previously described (Hood K. A et al.).

A further data set concerns K562 cells. As to the kind of experiment: cellular morphology. Type of data set: cell-based, human. The conditions noted are these: K562, 2 days exposure, 100 nM.
The subject of the next data set is HeLa cells. As to the kind of experiment: anti-metabolic activity, WST-1 reduction. It is filed as cell-based. Set-up: stimulation of WST-1 reduction: dose or concentration left out as unconfirmed. How it is done: The effect of Peloruside A and paclitaxel on superoxide production was determined using human peripheral blood neutrophils activated with […] N-formyl-met-leu-phe (fMLP) as described previously (Tan A. S., Berridge M. V., J. Immunol. Meth. (2000), 238, 59-68). In this microplate assay, the cell-impermeable tetrazolium salt, WST-1, is reduced to its soluble formazan and dye reduction measured at 450 nm as an initial rate over 10-20 min. Samples were equilibrated with cells for 3 min at 37° C. and the reaction initiated by adding fMLP. Measurement of anti-metabolic activity followed a similar microplate protocol except that HeLa cells were used instead of neutrophils, cells were not activated with fMLP, and the intermediate electron acceptor, 1-methoxy phenazine methosulfate at 25 mM, was included in the WST-1 reagent to facilitate detection of low potential electrons from the plasma membrane.

Data set [3] deals with H441 (human lung adenocarcinoma). The data set is described as follows: MTT cytotoxicity assay, 96 hours exposure. Type of data set: cell-based. On the procedure: as §1
H441 (human lung adenocarcinoma)
as §2, §3

The next data set concerns HL-60 cells. As to the kind of experiment: MTT cell proliferation assay. Type of data set: cell-based, human. The conditions noted are these: Homo sapiens, HL-60. How it is done:
as §4

In the next data set the test system is purified tubulin. As to the kind of experiment: in vitro tubulin polymerization and electron microscopy. Type of data set: biochemical. The arrangement: polymerization of purified tubulin in solution: dose or concentration left out as unconfirmed. How it is done:
Purified tubulin (approximately 7.5 mg protein) containing approximately 15% microtubule-associated proteins was obtained from Sigma and reconstituted in 0.1 M MES buffer, pH 6.8, 1 mM EGTA, 0.1 mM EDTA, 0.5 mM MgCl2, 1 mM DTT, 0.1 mM GTP, 1 mg/mL leupeptin, 1 mg/mL aprotinin, and 100 mg/mL sucrose as stabilizer. The reconstituted tubulin was incubated at 37° C. for 30 min in the presence of […] Peloruside A or […] paclitaxel. Samples […] were pipetted onto 400-mesh carbon- and Formvar-coated copper grids and left for 2 min at RT before blotting with filter paper. Each grid was stained with 5 mL of 1% uranyl acetate for 3 min at RT, then blotted with filter paper. Grids were air-dried overnight before examination in a Philips CM100 transmission electron microscope.
(B) Immunoblots following exposure to […] Peloruside A and […] paclitaxel for varying lengths of time. (C) Transmission electron micrograph of microtubules formed following treatment of purified soluble tubulin with […] Peloruside A for 30 min at 37° C. Scale bar (lower right)=500 nm.

In a further data set the test system is H441 cells. The data set is described as follows: cellular morphology, phase-contrast microscopy. It is filed as cell-based, human. How it is done: Phase-contrast photomicrographs of H441 human lung adenocarcinoma cells: untreated control cells (A) and cells exposed for 48 h to 100 nM Peloruside A (B) or 100 nM paclitaxel (C). Note the intracellular fiber bundles in approximately 10% of the treated cells and the numerous micronuclei, each with a dark central spot of condensed DNA. Scale bar=[…].

In a further data set the test system is 32D (murine myeloid). As to the kind of experiment: MTT cytotoxicity assay. Type of data set: cell-based. On the procedure:
as §1, §2
Briefly, cell lines were maintained in Dulbecco's modified Eagle's medium: F12 medium (50:50) (Gibco) supplemented with 10% fetal calf serum (Gibco), […] Penicillin G, and […] streptomycin sulfate. […] […] Data were analysed with the SYSTAT statistical program using a non-linear model fit, and IC50 values were calculated using a Logit-Log plot.

Data set [4] relates to SH-SY5Y (human neuroblastoma). As to the kind of experiment: MTT cytotoxicity assay, 96 hours exposure. Type of data set: cell-based. On the procedure:
as §1
SH-SY5Y (human neuroblastoma)
as §2, §3

Data set [5] relates to P388 (Murine Leukemia) cells. As to the kind of experiment: anti-tumor assay, P388 cell growth, MTT. It is filed as cell-based. Particulars: Mus musculus, 72 hours incubation, read-out: cytotoxic to P388 murine leukemia cells (IC50). How it is done:
The bioactivity of peloruside A as an anti-tumor agent was determined by an anti-tumor assay. For the anti-tumor assay a 2-fold dilution series of the same of interest is incubated for 72 hours with P388 (Murine Leukemia) cells. The concentration of sample required to reduce the P388 cell growth by 50% (comparative to control cells) is determined using the absorbance values obtained with the yellow dye MTT tetrazollum is reduced by healthy cells to the purple colour MTT formazan. The result is expressed as an IC50 in ng/mL.

≈ marks a conversion by molar mass, not a printed value.

The IC50 is the midpoint of a concentration-inhibition curve.

Turning to `CCC(/C=C(/C)C1C[C@H](OC)C[C@@H](O)C(C)(C)[C@]2(O)OC(CC(OC)C2O)C[C@H](OC)[C@@H](O)C(=O)O1)CO` (stereo partly shown) [Peloruside A], in [1], the lipophilicity result is recorded as “less lipophilic than paclitaxel”. Moreover, the LD50 was found to be 3.7 nM with LLC-PK1 (pig kidney); 18 nM with P388 (murine leukemia); 6.2 nM in data set [3] (H441, 96 hours exposure); 0.0078 µM in the data set with 32D (murine myeloid) (96 hours exposure); 1600 µM with 32D (murine myeloid) (viability at 24 hours of exposure); 14.9 nM in [4] (96 hours exposure). The figures for the concentration for half-maximal inhibition (IC50) (in [2]; in the data set with HL-60 cells; in data set [5]) were 4 to 15 nM, 7 ± 4 nM and about 0.01 µg/mL (≈ 0.0182 µM), respectively. In addition, the micronuclei result is listed as “multiple micronuclei were observed” in the data set on K562 cells and “multiple micronuclei were observed” in the data set with H441 cells (H441, 2 days exposure, 100 nM). In the data set with HeLa cells, the “stimulation of WST-1 reduction” value is recorded as 20%. For the same molecule, the “nuclei break up into small vessicles (nuclear blebbing)” value in [3] (H441, comparators at their respective LD50s) was “nuclei of the cells were observed to break up into small vessicles”. Further, in the data set with purified tubulin (30 min, 37° C., electron microscopy), the “polymerization of purified tubulin in solution” value is reported as “polymerize in solution into typical, long, straight microtubules”. Further, the “stability of induced microtubules” value in the data set on purified tubulin (at 0C) was “stable”. In addition, the “treated cells with intracellular fiber bundles” value with H441 cells (H441, 48 h, 100 nM) is recorded as “approximately 10%”. The intracellular fiber bundles result in the data set with H441 cells (H441, phase-contrast microscopy) is recorded as “large intracellular fiber bundles were observed”. In addition, in [4], the retraction of dendrites result is “no retraction of dendrites was observed”.

Source of the values: US6790862B2 (priority 1999, dated 2004).
